Test results published in patent US6838557B1, “Process for making a chelating agent for labeling biomolecules using preformed active esters” (Board of Regents The University of Texas System, priority 2002, dated 2005).

Experiment: Stability of DOTA mono-NHS in water by 1H NMR (rate of change in the ratio Afree/Abound)
Assay type: physicochemical
Details: neutral pH, read-out: half-life for hydrolysis
Source text: For example, ^1H NMR spectra, such as that illustrated in FIG. 1, were used to measure the ratio of the areas (Afree/Abound) of the ^1H NMR signal corresponding to NHS free in solution (δfree −2.6 ppm; Free NHS), relative to the signal corresponding to NHS covalently bound to DOTA (δbound −2.85 ppm; Bound NHS). […] Similar results were obtained by measuring the relative areas of the ^13C signals corresponding to free and bound NHS (δbound −25.5 ppm and δfree −25.2 ppm; FIG. 2).
Similar to that described above, the NMR data was used to estimate the percentage of free NHS. […] The stability of DOTA mono-NHS in water was also assessed using ^1H NMR by measuring the rate of change in the ratio Afree/Abound at neutral pH.

half-life: ~30 min
SMILES: O=C(O)CN1CCN(CC(=O)O)CCN(CC(=O)ON2C(=O)CCC2=O)CCN(CC(=O)O)CC1 [DOTA mono-NHS, 1,4,7,10-tetraazacyclododecane-1,4,7,10-tetra(aceticacid)-10-mono(N-hydroxysuccinimidyl ester)]
